# Target: T1, GRK2 (Homo sapiens, UniProt P25098)
# T1 sequence (P25098 1-689): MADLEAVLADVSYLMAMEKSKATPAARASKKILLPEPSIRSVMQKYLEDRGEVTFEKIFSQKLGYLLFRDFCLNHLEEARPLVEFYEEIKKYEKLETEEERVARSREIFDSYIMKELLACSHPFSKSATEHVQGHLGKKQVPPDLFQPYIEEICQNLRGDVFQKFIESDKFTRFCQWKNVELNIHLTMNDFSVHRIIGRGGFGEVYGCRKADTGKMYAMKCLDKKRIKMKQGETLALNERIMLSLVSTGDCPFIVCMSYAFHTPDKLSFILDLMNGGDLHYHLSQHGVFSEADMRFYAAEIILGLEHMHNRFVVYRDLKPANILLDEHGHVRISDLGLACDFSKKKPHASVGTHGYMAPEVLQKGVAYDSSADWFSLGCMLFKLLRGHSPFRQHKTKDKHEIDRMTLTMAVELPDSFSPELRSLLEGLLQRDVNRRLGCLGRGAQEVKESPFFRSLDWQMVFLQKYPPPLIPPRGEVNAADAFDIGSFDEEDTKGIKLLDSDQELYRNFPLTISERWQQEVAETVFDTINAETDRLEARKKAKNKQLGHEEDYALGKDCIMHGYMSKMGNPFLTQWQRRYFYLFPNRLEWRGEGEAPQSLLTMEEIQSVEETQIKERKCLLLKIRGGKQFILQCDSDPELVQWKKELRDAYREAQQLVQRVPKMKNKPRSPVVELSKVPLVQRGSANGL
# Experiment: In vitro tubulin phosphorylation assay with purified GRK2
# Assay type: biochemical
# Conditions: 10 μM DFPQ, 60-minute time course, FIG. 3C
# Protocol: FIGS. 3A-3D: DFPQ inhibits GRK-mediated phosphorylation of the β2AR. FIG. 3A: Representative time course of agonist promoted phosphorylation of the β2AR. […] Cells were lysed and the FLAG-β2AR was immunoprecipitated. Phosphorylation at […] and 356 was analyzed by western blot using a pSer^355/356 antibody while total β2AR was measured using a β2AR C-terminal antibody. The western blot is representative of at least 3 experiments and is quantified in FIG. 3B. FIG. 3C: […] FIG. 3D: Bar graphs represent pixel densitometry of radiolabeled tubulin at the 60 min timepoint from 4 experiments. […]® ADRB2 cells (DiscoveRx) were maintained with the AssayCompleteTM Cell Culture kit (DiscoveRx catalog #92-[…]). […] Cells were read every three minutes for 18 minutes on a PolarStar Optima plate reader (BMG) to establish peak signal. […] Luminescence was determined at room temperature (23-25° C.) on a PolarStar Optima plate reader (BMG). […] Relative assay bias was calculated from the ratio of normalized cAMP and arrestin recruitment responses. […] BRET was measured using a Tecan Infinite F500 microplate reader. […] Bound [35 S]GTPγS was collected by rapid filtration on GF/B filters, washed 4 times with 4 ml of cold GTPγS wash buffer and analyzed by liquid scintillation counting. […] Immunoprecipitated proteins were separated by SDS-PAGE and analyzed by western blot using a β2AR C-terminal tail or phospho-specific antibody. […]
structure (smiles),measurement,value
"Fc1ccc(Nc2nc(NC3CCCCC3)c3ccccc3n2)cc1F [DFPQ, N^4-cyclohexyl-N^2-(3,4-difluorophenyl)quinazoline-2,4-diamine]",phosphorylation of tubulin by GRK2,unaffected

# Source: patent publication US20240166626A1, “Compounds and Methods for Preventing, Treating, or Ameliorating Airway Disease” (THOMAS JEFFERSON UNIVERSITY, priority 2021, published 2024)
